Publication PMC9786741, “Elucidating the Role of Santalol as a Potent Inhibitor of Tyrosinase: In Vitro and In Silico Approaches” (Molecules, 2022)

Biological target: T1, tyrosinase (mushroom tyrosinase, polyphenoloxidase EC 1.14.18.1)
T1 construct: gene PPO3; native enzyme from mushroom caps; ammonium sulphate, DEAE-cellulose, Superdex 200; single 63 kDa band on SDS-PAGE; isoenzyme not determined
Assay: isothermal titration calorimetry
Set-up: species or system Agaricus bisporus
Settings: 25 °C, pH 6.8, 25 mM phosphate; step 1 (strongest) of three-step sequential binding model
Description: isothermal titration calorimetry on tyrosinase (mushroom tyrosinase, polyphenoloxidase EC 1.14.18.1)

Kd: 1.27 µM
SMILES: C=C1C2CCC(C2)C1(C)CC/C=C(/C)CO (stereo not shown) [santalol]
